{
  "source": "patent US20050267126A1",
  "about": "“Compounds derived from aryl carbamates, preparation thereof and uses of same” (priority 2002, published 2005)",
  "target": "T1, human isoform h5-HT4e (Homo sapiens, UniProt Q13639)",
  "T1 construct": "expressed in transfected cells; host or cells: rat glial cells, stably expressing; membranes prepared from homogenized cells",
  "T1 sequence (Q13639 1-378 isoform Q13639-5)": "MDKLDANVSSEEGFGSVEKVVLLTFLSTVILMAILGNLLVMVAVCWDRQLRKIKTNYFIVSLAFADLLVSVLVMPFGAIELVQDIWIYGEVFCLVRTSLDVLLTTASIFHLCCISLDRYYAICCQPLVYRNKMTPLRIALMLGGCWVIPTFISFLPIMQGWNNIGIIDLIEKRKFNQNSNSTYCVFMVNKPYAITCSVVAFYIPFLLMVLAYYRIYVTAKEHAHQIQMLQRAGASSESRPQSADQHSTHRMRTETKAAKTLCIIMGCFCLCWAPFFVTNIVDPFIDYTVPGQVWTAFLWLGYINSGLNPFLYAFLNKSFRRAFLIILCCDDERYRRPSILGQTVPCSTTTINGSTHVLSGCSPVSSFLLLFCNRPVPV",
  "experiment": "displacement of radiolabelled ligand [3H]-GR113808, affinity constant Ki",
  "format": "binding",
  "details": "[3H]-GR113808 0.2 nM; membranes of rat glial cells stably expressing h5-HT4e; 25° C., 30 min",
  "experimental": "The compounds of the invention were evaluated by measuring their affinity constant Ki determined by displacement of a radiolabelled ligand [^3H]—GR113808 in rat glial cells stably expressing the human isoform h5-HT4e.\nConfluent glial cells were washed twice with PBS and centrifuged at 300 g for 5 min. The pellet was used immediately and the cells were suspended in 10 volumes of HEPES (50 mM, pH 7.4, 4° C.) then homogenized in a teflon homogenizer and centrifuged at 40,000 g for 20 min. The pellet was again suspended in 15 volumes of HEPES. Binding displacement experiments were carried out in […] of 50 mM HEPES buffer containing 20 μl of the radiolabelled ligand [^3H]—GR113808 at a concentration of 0.2 nM for the isoform h5-HT4e or at a concentration equal to one-half the Kd of the radioligand for the other isoforms expressed in COS cells, 20 μl of competitor ligand at 7 different concentrations and 50 μl of membrane preparation (100-200 μg of protein determined by the Bradford method). Binding was carried out at 25° C. for 30 min and the reaction was stopped by rapid vacuum filtration (Brandel Harvester) on Whatman GF/B filters preincubated in 0.1% PEI to reduce nonspecific binding.\nMembrane-bound radioactivity was retained on the filter, which was cut and washed with cold buffer (50 mM Tris-HCl, pH 7.4) and incubated overnight in 4 ml of scintillation fluid. Radioactivity was measured in a liquid scintillation counter (Beckmann LS 6500C). Binding data were obtained by computer-assisted linear regression. (Graph Prism Program, Graph Pad Software. Inc., San Diego, Calif.)",
  "data": [
    {"smiles": "CCOc1ccccc1NC(=O)OCCN1CCN(c2cccc(C(=O)N(C)CCN(C)C)c2)CC1", "note": "[Example 105, 2-(4-{3-[(2-dimethylamino-ethyl)-methyl-carbamoyl]-phenyl}-piperazin-1-yl)-ethyl N-(2-ethoxy-phenyl)-carbamate]", "values": [
      {"measurement": "Ki", "value": 0.75, "unit": "nM"}
    ]},
    {"smiles": "CCOc1ccccc1NC(=O)OCCN1CCN(c2cccc(NC(=O)C(N)Cc3ccc(O)cc3)c2)CC1", "note": "(centres unmarked) [Example 44, 2-(4-{3-[2-amino-3-(4-hydroxy-phenyl)-propionylamino]-phenyl}-piperazin-1-yl)-ethyl-N-(2-ethoxy-phenyl)carbamate]", "values": [
      {"measurement": "Ki", "value": 0.18, "unit": "nM"}
    ]},
    {"smiles": "CCOc1ccccc1NC(=O)OCCN1CCN(c2cccc(C(=O)NCCN3CCCCC3)c2)CC1", "note": "[Example 78, 2-(4-{3-[2-piperidin-1-yl-ethylcarbamoyl]-phenyl}-piperazin-1-yl)-ethyl-N-(2-ethoxy-phenyl)carbamate]", "values": [
      {"measurement": "Ki", "value": 0.16, "unit": "nM"}
    ]},
    {"smiles": "CCOc1ccccc1NC(=O)OCCN1CCN(c2cccc(NC(=O)NCC3CCCN3CC)c2)CC1", "note": "(centres unmarked) [Example 57, 2-(4-{3-[3-(1-ethyl-pyrrolidin-2-ylmethyl)-ureido]-phenyl}-piperazin-1-yl)-ethyl-N-(2-ethoxy-phenyl)carbamate]", "values": [
      {"measurement": "Ki", "value": 0.09, "unit": "nM"}
    ]},
    {"smiles": "CCOc1ccccc1NC(=O)OCCN1CCN(c2cccc(NC(=O)NCCCN3CCN(C)CC3)c2)CC1", "note": "[Example 60, 2-[4-(3-{3-[3-(4-methyl-piperazin-1-yl)-propyl]-ureido}-phenyl)-piperazin-1-yl]-ethyl-N-(2-ethoxy-phenyl)carbamate]", "values": [
      {"measurement": "Ki", "value": 0.2, "unit": "nM"}
    ]},
    {"smiles": "CCOc1ccccc1NC(=O)OCCN1CCN(c2cccc(NC(=O)CCN)c2)CC1", "note": "[Example 42, 2-{4-[3-(3-amino-propionylamino)-phenyl]-piperazin-1-yl}-ethyl-N-(2-ethoxy-phenyl)carbamate]", "values": [
      {"measurement": "Ki", "value": 0.17, "unit": "nM"}
    ]},
    {"smiles": "CCOc1ccccc1NC(=O)OCCN1CCN(c2cccc(NC(=O)N3CCC(N4CCCC4)CC3)c2)CC1", "note": "[Example 59, 2-(4-{3-[(4-pyrrolidin-1-yl-piperidine-1-carbonyl)-amino]-phenyl}-piperazin-1-yl)-ethyl-N-(2-ethoxy-phenyl)carbamate]", "values": [
      {"measurement": "Ki", "value": 0.24, "unit": "nM"}
    ]},
    {"smiles": "CCOc1ccccc1NC(=O)OCCN1CCN(c2cccc(NC(=O)C3=CCCN(C)C3)c2)CC1", "note": "[Example 21, 2-(4-{3-[(1-methyl-1,2,5,6-tetrahydro-pyridine-3-carbonyl)-amino]-phenyl}-piperazin-1-yl)-ethyl-N-(2-ethoxy-phenyl)carbamate]", "values": [
      {"measurement": "Ki", "value": 0.13, "unit": "nM"}
    ]}
  ]
}
